Patent publication US10577363B2, “Substituted piperidine compounds” (EPIZYME, INC., priority 2014, dated 2020)

How the values were obtained:
[1] = target: T1, SMYD3 (Homo sapiens (Human), UniProt Q9H7B4); test: SMYD3 biochemical assay (SPA, 3H-SAM methylation of MEKK2 protein substrate); conditions: read-out: SMYD3 Biochem IC50*
Method in brief: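 SPA methyltransferase format: tag-cleaved human SMYD3, insect-cell GST-MEKK2 protein substrate, 3H-SAM donor, 30 min RT enzyme–compound preincubation, 100 uM cold SAM quench.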

[2] = target: T1, SMYD3; test: SMYD3 cell assay (Trimethyl-MEKK2 In-Cell Western in 293T/17 cells); assay type: cell-based; conditions: read-out: SMYD3 Cell IC50*
Method in brief: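 In-Cell Western readout: methanol-fixed cells stained for trimethyl-MEKK2 and flag tag, ratio per well normalized to DMSO and background controls.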

T1 sequence (Q9H7B4 whole entry): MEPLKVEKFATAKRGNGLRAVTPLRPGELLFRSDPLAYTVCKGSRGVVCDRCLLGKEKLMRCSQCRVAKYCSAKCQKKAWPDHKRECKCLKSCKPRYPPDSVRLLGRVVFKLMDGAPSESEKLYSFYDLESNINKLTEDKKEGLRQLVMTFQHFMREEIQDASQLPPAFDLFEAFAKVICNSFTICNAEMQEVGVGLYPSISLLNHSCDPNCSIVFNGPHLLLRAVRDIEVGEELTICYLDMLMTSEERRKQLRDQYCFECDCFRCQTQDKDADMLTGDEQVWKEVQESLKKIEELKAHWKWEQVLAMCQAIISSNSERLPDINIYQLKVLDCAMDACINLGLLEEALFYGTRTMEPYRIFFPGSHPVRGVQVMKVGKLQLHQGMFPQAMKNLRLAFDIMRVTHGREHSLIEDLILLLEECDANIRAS

| Structure (SMILES) | IC50 [1] | IC50 [2] |
| --- | --- | --- |
| O=C(N[C@H]1C[C@H]2CC[C@@H](C1)N2S(=O)(=O)N1CC2CCC(C1)N2CCc1ccccc1)c1cc(C2CC2)on1 [compound 867, 5-cyclopropyl-N-((1R,3r,5S)-8-((8-phenethyl-3,8-diazabicyclo[3.2.1]octan-3-yl)sulfonyl)-8-azabicyclo[3.2.1]octan-3-yl)isoxazole-3-carboxamide] | 8.67 nM | 844 nM |
| O=C(N[C@H]1C[C@H]2CC[C@@H](C1)N2S(=O)(=O)N1CCC(NCCCN2CCCC2)CC1)c1cc(C2CC2)on1 [compound 868, 5-cyclopropyl-N-((1R,3r,5S)-8-((4-((3-(pyrrolidin-1-yl)propyl)amino)piperidin-1-yl)sulfonyl)-8-azabicyclo[3.2.1]octan-3-yl)isoxazole-3-carboxamide] | 8.68 nM | 310 nM |
| COCCCNC1CCN(S(=O)(=O)N2[C@@H]3CC[C@H]2C[C@@H](NC(=O)c2cc(C4CC4)on2)C3)CC1 [compound 869, 5-cyclopropyl-N-((1R,3r,5S)-8-((4-((3-methoxypropyl)amino)piperidin-1-yl)sulfonyl)-8-azabicyclo[3.2.1]octan-3-yl)isoxazole-3-carboxamide] | 9.05 nM | 117 nM |
| COCCNC1CCN(S(=O)(=O)N2[C@@H]3CC[C@H]2C[C@@H](NC(=O)c2cc(C4CC4)on2)C3)CC1 [compound 870, 5-cyclopropyl-N-((1R,3r,5S)-8-((4-((2-methoxyethyl)amino)piperidin-1-yl)sulfonyl)-8-azabicyclo[3.2.1]octan-3-yl)isoxazole-3-carboxamide] | 9.34 nM | 130 nM |
| CC(C)c1cc(C(=O)N[C@H]2C[C@H]3CC[C@@H](C2)N3S(=O)(=O)[C@H]2CC[C@H](N)CC2)no1 [compound 871, N-((1R,3R,5S)-8-(((1r,4R)-4-aminocyclohexyl)sulfonyl)-8-azabicyclo[3.2.1]octan-3-yl)-5-isopropylisoxazole-3-carboxamide] | 9.38 nM | 86.7 nM |
| CCN(CC)C1CCN(S(=O)(=O)N2CC[C@H](NC(=O)c3cc(C4CC4)on3)C[C@@H]2C)CC1 [compound 872, 5-cyclopropyl-N-((2S,4S)-1-((4-(diethylamino)piperidin-1-yl)sulfonyl)-2-methylpiperidin-4-yl)isoxazole-3-carboxamide] | 9.46 nM | 183 nM |
| C[C@H]1CN(S(=O)(=O)[C@H]2CC[C@@H](N)CC2)CC[C@H]1NC(=O)c1cc(C2CC2)on1 [compound 873, N-((3S,4R)-1-(((1s,4R)-4-aminocyclohexyl)sulfonyl)-3-methylpiperidin-4-yl)-5-cyclopropylisoxazole-3-carboxamide] | 9.62 nM | 169 nM |
| CN(CCCN1CCCC1)C1CCN(S(=O)(=O)N2[C@@H]3CC[C@H]2C[C@@H](NC(=O)c2cc(C4CC4)on2)C3)CC1 [compound 874, 5-cyclopropyl-N-((1R,3r,5S)-8-((4-(methyl(3-(pyrrolidin-1-yl)propyl)amino)piperidin-1-yl)sulfonyl)-8-azabicyclo[3.2.1]octan-3-yl)isoxazole-3-carboxamide] | 9.87 nM | 237 nM |
| C[C@H](C1CCN(C)CC1)S(=O)(=O)N1[C@@H]2CC[C@H]1C[C@@H](NC(=O)c1cc(C3CC3)on1)C2 [compound 876, 5-cyclopropyl-N-((1R,3R,5S)-8-(((R)-1-(1-methylpiperidin-4-yl)ethyl)sulfonyl)-8-azabicyclo[3.2.1]octan-3-yl)isoxazole-3-carboxamide] | 10 nM | 186 nM |
| C[C@@H]1C[C@@H](NS(=O)(=O)N2[C@@H]3CC[C@H]2C[C@@H](NC(=O)c2cc(C4CC4)on2)C3)CCN1 [compound 877, 5-cyclopropyl-N-((1R,3S,5S)-8-(N-((2R,4S)-2-methylpiperidin-4-yl)sulfamoyl)-8-azabicyclo[3.2.1]octan-3-yl)isoxazole-3-carboxamide] | 10 nM | 176 nM |
| O=C(N[C@H]1C[C@H]2CC[C@@H](C1)N2S(=O)(=O)[C@@H]1CCCCNC1)c1cc(C2CC2)on1 [compound 878, N-((1R,3R,5S)-8-(((R)-azepan-3-yl)sulfonyl)-8-azabicyclo[3.2.1]octan-3-yl)-5-cyclopropylisoxazole-3-carboxamide] | 10.1 nM | 241 nM |
| CC(C)c1cc(C(=O)N[C@H]2C[C@H]3CC[C@@H](C2)N3S(=O)(=O)CC2CCN(C)CC2)no1 [compound 879, 5-isopropyl-N-((1R,3r,5S)-8-(((1-methylpiperidin-4-yl)methyl)sulfonyl)-8-azabicyclo[3.2.1]octan-3-yl)isoxazole-3-carboxamide] | 10.7 nM | 206 nM |
| CN(Cc1ccccc1)C1CCN(S(=O)(=O)N2[C@@H]3CC[C@H]2C[C@@H](NC(=O)c2cc(C4CC4)on2)C3)CC1 [compound 880, N-((1R,3r,5S)-8-((4-(benzyl(methyl)amino)piperidin-1-yl)sulfonyl)-8-azabicyclo[3.2.1]octan-3-yl)-5-cyclopropylisoxazole-3-carboxamide] | 10.8 nM | 455 nM |
| O=C(N[C@H]1C[C@H]2CC[C@@H](C1)N2S(=O)(=O)N1CC2CCC(C1)N2CCO)c1cc(C2CC2)on1 [compound 881, 5-cyclopropyl-N-((1R,3r,5S)-8-((8-(2-hydroxyethyl)-3,8-diazabicyclo[3.2.1]octan-3-yl)sulfonyl)-8-azabicyclo[3.2.1]octan-3-yl)isoxazole-3-carboxamide] | 10.9 nM | 68.9 nM |
| C[C@@H](C1CCNCC1)S(=O)(=O)N1[C@@H]2CC[C@H]1C[C@@H](NC(=O)c1cc(C3CC3)on1)C2 [compound 882, 5-cyclopropyl-N-((1R,3S,5S)-8-(((S)-1-(piperidin-4-yl)ethyl)sulfonyl)-8-azabicyclo[3.2.1]octan-3-yl)isoxazole-3-carboxamide] | 11.2 nM | 85.6 nM |
| O=C(N[C@H]1C[C@H]2CC[C@@H](C1)N2S(=O)(=O)[C@H]1CCCCNC1)c1cc(C2CC2)on1 [compound 883, N-((1R,3S,5S)-8-(((S)-azepan-3-yl)sulfonyl)-8-azabicyclo[3.2.1]octan-3-yl)-5-cyclopropylisoxazole-3-carboxamide] | 12 nM | 128 nM |
| O=C(N[C@H]1C[C@H]2CC[C@@H](C1)N2S(=O)(=O)NC1CCN[C@@H](Cc2ccccc2)C1)c1cc(C2CC2)on1 (stereo partly drawn) [compound 884, N-((1R,3S,5S)-8-(N-((2S)-2-benzylpiperidin-4-yl)sulfamoyl)-8-azabicyclo[3.2.1]octan-3-yl)-5-cyclopropylisoxazole-3-carboxamide] | 12.1 nM | 283 nM |
| CN[C@H]1CC[C@H](S(=O)(=O)N2CC[C@@H](NC(=O)c3cc(C4CC4)on3)[C@@H](C)C2)CC1 [compound 885, 5-cyclopropyl-N-((3S,4R)-3-methyl-1-(((1r,4S)-4-(methylamino)cyclohexyl)sulfonyl)piperidin-4-yl)isoxazole-3-carboxamide] | 12.1 nM | 157 nM |
| C[C@H]1C[C@@H](NS(=O)(=O)N2[C@@H]3CC[C@H]2C[C@@H](NC(=O)c2cc(C4CC4)on2)C3)CCN1 [compound 886, 5-cyclopropyl-N-((1R,3S,5S)-8-(N-((2S,4S)-2-methylpiperidin-4-yl)sulfamoyl)-8-azabicyclo[3.2.1]octan-3-yl)isoxazole-3-carboxamide] | 12.1 nM | 205 nM |
| CC1CN(S(=O)(=O)N2[C@@H]3CC[C@H]2C[C@@H](NC(=O)c2cc(C4CC4)on2)C3)CCN1 (stereo partly drawn) [compound 887, 5-cyclopropyl-N-((1R,3r,5S)-8-((3-methylpiperazin-1-yl)sulfonyl)-8-azabicyclo[3.2.1]octan-3-yl)isoxazole-3-carboxamide] | 12.2 nM | 87.8 nM |
| COCCCN1C2CCC1CN(S(=O)(=O)N1[C@@H]3CC[C@H]1C[C@@H](NC(=O)c1cc(C4CC4)on1)C3)C2 [compound 888, 5-cyclopropyl-N-((1R,3r,5S)-8-((8-(3-methoxypropyl)-3,8-diazabicyclo[3.2.1]octan-3-yl)sulfonyl)-8-azabicyclo[3.2.1]octan-3-yl)isoxazole-3-carboxamide] | 12.4 nM | 118 nM |
| CCN(CC)C1CCN(S(=O)(=O)N2[C@@H]3CC[C@H]2C[C@@H](NC(=O)c2cc(C4CC4)on2)C3)CC1 [compound 889, 5-cyclopropyl-N-((1R,3r,5S)-8-((4-(diethylamino)piperidin-1-yl)sulfonyl)-8-azabicyclo[3.2.1]octan-3-yl)isoxazole-3-carboxamide] | 12.7 nM | 216 nM |
| CC1CC(N)CCN1S(=O)(=O)N1CC[C@H](NC(=O)c2cc(C3CC3)on2)C[C@@H]1C (stereo partly drawn) [compound 890, N-((2S,4S)-1-((4-amino-2-methylpiperidin-1-yl)sulfonyl)-2-methylpiperidin-4-yl)-5-cyclopropylisoxazole-3-carboxamide] | 13.2 nM | 239 nM |
| NC1[C@@H]2CC[C@H]1CN(S(=O)(=O)N1[C@@H]3CC[C@H]1CC(NC(=O)c1cc(C4CC4)on1)C3)C2 (stereo partly drawn) [compound 891, N-((1R,3R,5S)-8-(((1R,5S)-8-amino-3-azabicyclo[3.2.1]octan-3-yl)sulfonyl)-8-azabicyclo[3.2.1]octan-3-yl)-5-cyclopropylisoxazole-3-carboxamide] | 13.3 nM | 145 nM |
| O=C(N[C@H]1C[C@H]2CC[C@@H](C1)N2S(=O)(=O)N1CCC(NCc2ccc(C(F)(F)F)cc2)CC1)c1cc(C2CC2)on1 [compound 892, 5-cyclopropyl-N-((1R,3r,5S)-8-((4-((4-(trifluoromethyl)benzyl)amino)piperidin-1-yl)sulfonyl)-8-azabicyclo[3.2.1]octan-3-yl)isoxazole-3-carboxamide] | 13.5 nM | 268 nM |
